Laboratory results reported in patent publication US7482379B2, “Propenoyl hydrazides” (priority 2004, dated 2009).
Like-named read-outs stand apart in the source and are kept apart here. Peptide text beside a SMILES is read from it. * marks the point of attachment. AFC = O=c1cc(C(F)(F)F)c2ccc(N*)cc2o1; Cbz = O=C(OCc1ccccc1)*

Experiments:
[1] = target: T1, Caspase-3 (Homo sapiens, UniProt P42574); test: Caspase-3 progress curve inhibition assay; details: for k2 Caspase-3: second-order rate constant, Ac-DEVD-AMC substrate, Pipes buffer pH 7.2
T1 sequence (P42574 29-175 limits assumed): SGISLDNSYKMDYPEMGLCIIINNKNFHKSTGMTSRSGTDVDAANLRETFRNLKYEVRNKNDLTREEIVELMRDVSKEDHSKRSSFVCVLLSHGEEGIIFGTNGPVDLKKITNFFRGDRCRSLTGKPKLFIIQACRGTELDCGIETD
T1 sequence (P42574 176-277 limits assumed): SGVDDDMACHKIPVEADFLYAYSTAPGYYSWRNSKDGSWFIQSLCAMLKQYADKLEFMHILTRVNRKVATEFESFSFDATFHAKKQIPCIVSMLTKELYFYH

[2] = target: Caspase-8 (Homo sapiens, UniProt Q14790); test: Caspase-8 progress curve inhibition assay; details: for k2 Caspase-8: second-order rate constant, Ac-DEVD-AMC substrate, Pipes buffer pH 7.2
[3] = target: T2, Caspase-6 (Homo sapiens, UniProt P55212); test: Caspase-6 progress curve inhibition assay; details: for k2 Caspase-6: second-order rate constant, Ac-DEVD-AMC substrate, Pipes buffer pH 7.2
T2 sequence (P55212 24-179 limits assumed): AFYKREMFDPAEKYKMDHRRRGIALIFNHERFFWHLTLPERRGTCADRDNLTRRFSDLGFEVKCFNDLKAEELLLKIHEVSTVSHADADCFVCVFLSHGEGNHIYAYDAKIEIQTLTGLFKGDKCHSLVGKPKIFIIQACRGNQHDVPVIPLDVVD
T2 sequence (P55212 194-293 limits assumed): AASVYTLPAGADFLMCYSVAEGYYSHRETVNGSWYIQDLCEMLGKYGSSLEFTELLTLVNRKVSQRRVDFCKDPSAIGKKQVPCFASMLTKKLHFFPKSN

[4] = target: T3, Caspase-7 (Homo sapiens, UniProt P55210); test: Caspase-7 progress curve inhibition assay; details: for k2 Caspase-7: second-order rate constant, Ac-DEVD-AMC substrate, Pipes buffer pH 7.2
T3 sequence (P55210 24-198 limits assumed): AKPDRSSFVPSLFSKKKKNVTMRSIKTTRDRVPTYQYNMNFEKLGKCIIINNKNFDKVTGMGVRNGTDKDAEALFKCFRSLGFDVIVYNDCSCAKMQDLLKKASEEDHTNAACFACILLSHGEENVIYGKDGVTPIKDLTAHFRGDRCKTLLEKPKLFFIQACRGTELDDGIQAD
T3 sequence (P55210 207-303 limits assumed): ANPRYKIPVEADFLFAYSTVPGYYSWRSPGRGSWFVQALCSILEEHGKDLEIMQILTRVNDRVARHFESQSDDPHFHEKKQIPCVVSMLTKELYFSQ

[5] = target: T4, Caspase-10 (Homo sapiens, UniProt Q92851); test: Caspase-10 progress curve inhibition assay; details: for k2 Caspase-10: second-order rate constant, Ac-DEVD-AMC substrate, Hepes/PEG buffer pH 7.0
T4 sequence (Q92851 220-415 limits assumed): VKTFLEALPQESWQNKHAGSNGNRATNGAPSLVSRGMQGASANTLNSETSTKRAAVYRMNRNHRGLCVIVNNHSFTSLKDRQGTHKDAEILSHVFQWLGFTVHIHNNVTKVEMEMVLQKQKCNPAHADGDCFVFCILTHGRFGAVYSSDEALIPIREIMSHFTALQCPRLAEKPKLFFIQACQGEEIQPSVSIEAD
T4 sequence (Q92851 416-521 limits assumed): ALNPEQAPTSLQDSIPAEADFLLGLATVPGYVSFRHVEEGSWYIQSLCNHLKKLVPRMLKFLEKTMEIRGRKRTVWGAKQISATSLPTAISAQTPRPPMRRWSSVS

[6] = target: T5, Caspase-2 (Homo sapiens, UniProt P42575); test: Caspase-2 progress curve inhibition assay; details: for k2 Caspase-2: second-order rate constant, Cbz-VDVAD-AFC substrate, Pipes buffer pH 7.2
T5 sequence (P42575 170-333 limits assumed): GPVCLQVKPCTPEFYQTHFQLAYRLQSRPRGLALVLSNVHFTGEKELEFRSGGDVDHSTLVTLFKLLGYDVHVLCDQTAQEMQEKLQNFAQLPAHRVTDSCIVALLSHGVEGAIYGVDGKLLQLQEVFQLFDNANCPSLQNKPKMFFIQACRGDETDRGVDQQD
T5 sequence (P42575 348-452 limits assumed): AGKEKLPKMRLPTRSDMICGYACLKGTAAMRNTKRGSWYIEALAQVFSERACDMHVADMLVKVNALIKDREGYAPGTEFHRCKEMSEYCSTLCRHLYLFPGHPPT

[7] = target: S. mansoni legumain (Schistosoma mansoni, UniProt P09841, N192C); test: S. mansoni legumain (SmAE) inhibition assay; assay type: biochemical; details: for kinact/KI: read-out: kobs/[I]
Procedure: Studies with the propenoyl hydrazides using the schistosome legumain […], (Schistosoma mansoni asparaginyl endopeptidase) were also performed. […] The actual active site enzyme concentration is unknown. The lyophilized enzyme ([…]) was reconstituted in 1.5 mL 0.5 M sodium acetate, pH 4.5 containing 4 mM DTT, and left to stand at 37° C. for 3-4 hours to allow for auto-activation of the zymogen. In a black 96-well microtiter plate, 50 μL of activated enzyme was added to an equal volume of 0.1 M citrate-phosphate buffer pH 6.8 containing 4 mM DTT. Inhibitor stock solutions (20 mM) were prepared in DMSO. Serial dilutions (using water) of inhibitor were added (as 1 μL aliquots) to yield concentrations of between 2 and 0.00002 μM inhibitor. […] After incubating various inhibitor concentrations with enzyme, 100 μL of the same buffer containing 20 μM substrate (Cbz-Ala-Ala-Asn-AMC) was added to the wells and the reaction monitored at room temperature with linear kinetics up to 20 minutes. Inhibitors are tested in duplicate. A plot of the RFU/min versus the inhibitor concentration [μM] permitted calculation of an IC50 value and estimation of the kobs/[I].

S. mansoni legumain, sequence (P09841 32-291 N192C): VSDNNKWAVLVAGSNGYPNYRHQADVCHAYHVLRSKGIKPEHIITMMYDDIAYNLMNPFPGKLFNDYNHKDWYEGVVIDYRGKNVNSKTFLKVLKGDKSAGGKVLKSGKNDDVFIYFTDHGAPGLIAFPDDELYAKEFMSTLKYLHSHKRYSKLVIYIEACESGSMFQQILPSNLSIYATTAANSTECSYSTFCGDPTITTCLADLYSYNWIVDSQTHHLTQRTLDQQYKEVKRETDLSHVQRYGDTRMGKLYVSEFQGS
Caspase-8, sequence (Q14790 217-374 limits assumed): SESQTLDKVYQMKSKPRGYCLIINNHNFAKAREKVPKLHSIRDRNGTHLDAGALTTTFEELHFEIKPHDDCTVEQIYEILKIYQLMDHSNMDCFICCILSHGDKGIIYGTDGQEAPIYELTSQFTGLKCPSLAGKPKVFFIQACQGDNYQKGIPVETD
Caspase-8, sequence (Q14790 385-479 limits assumed): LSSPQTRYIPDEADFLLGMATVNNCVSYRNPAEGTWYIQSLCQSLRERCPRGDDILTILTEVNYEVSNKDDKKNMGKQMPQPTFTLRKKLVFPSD

k2 Caspase-3 [1] | k2 Caspase-8 [2] | k2 Caspase-6 [3] | k2 Caspase-7 [4] | k2 Caspase-10 [5] | SMILES | k2 Caspase-2 [6] | IC50 [7] | also measured
1,700,000 M^−1s^−1 | 121,000 M^−1s^−1 | 8,470 M^−1s^−1 | 114,000 M^−1s^−1 | 28,300 M^−1s^−1 | CC(C)[C@H](NC(=O)[C@H](CCC(=O)O)NC(=O)[C@H](CC(=O)O)NC(=O)OCc1ccccc1)C(=O)NN(CC(=O)O)C(=O)/C=C/C(=O)OCc1ccccc1 (relative stereo) [Cbz-Asp-Glu-Val-AAsp-CH═CH—COOCH2Ph, N^1-trans-(3-Benzyloxycarbonylpropenoyl)-N^2—(N-benzyloxycarbonylaspartylglutamylvalyl)-N^1-carboxymethylhydrazine] | – | – | –
122,000 M^−1s^−1 | 9,720 M^−1s^−1 | 1,800 M^−1s^−1 | 10,800 M^−1s^−1 | 930 M⁻¹ s⁻¹ | CC(C)[C@H](NC(=O)[C@H](CCC(=O)O)NC(=O)[C@H](CC(=O)O)NC(=O)OCc1ccccc1)C(=O)NN(CC(=O)O)C(=O)/C=C/C(=O)c1ccccc1 (relative stereo) [Cbz-Asp-Glu-Val-AAsp-CH═CH—COPh, N^2—(N-Benzyloxycarbonylaspartylglutamylvalyl)-N^1-trans-(3-benzoylpropenoyl)-N^1-carboxymethylhydrazine] | 165 M⁻¹ s⁻¹ | – | –
2,300 M^−1s^−1 | 148,400 M^−1s^−1 | 23,350 M^−1s^−1 | 660 M⁻¹ s⁻¹ | 15,200 M^−1s^−1 | CC[C@H](C)[C@H](NC(=O)OCc1ccccc1)C(=O)N[C@@H](CCC(=O)O)C(=O)N[C@H](C(=O)NN(CC(=O)O)C(=O)/C=C/C(=O)OCc1ccccc1)[C@@H](C)O (relative stereo) [Cbz-Ile-Glu-Thr-AAsp-CH═CH—COOCH2Ph, N^1-trans-(3-Benzyloxycarbonylpropenoyl)-N^2—(N-benzyloxycarbonylisoleucylglutamylthreonyl)-N^1-carboxylmethylhydrazine] | 110 M⁻¹ s⁻¹ | – | –
– | – | – | – | – | CC(=O)N[C@@H](CC(=O)O)C(=O)N[C@@H](CCC(=O)O)C(=O)N[C@H](C(=O)N[C@@H](CC(=O)O)C(=O)Nc1ccc2c(C)cc(=O)oc2c1)C(C)C [Ac-DEVD-AMC, reference compound] | – | – | Km ([1]; read-out: KM with caspase-3, substrate Ac-DEVD-AMC): 9.7 µM; Km ([2]; read-out: KM with caspase-8, substrate Ac-DEVD-AMC): 6.79 µM; Km ([3]; read-out: KM with caspase-6, substrate Ac-DEVD-AMC): 236 µM; Km ([4]; read-out: KM with caspase-7, substrate Ac-DEVD-AMC): 23 µM; Km ([5]; read-out: KM with caspase-10, substrate Ac-DEVD-AMC): 20.2 µM
– | – | – | – | – | C[C@H](NC(=O)OCc1ccccc1)C(=O)N[C@@H](C)C(=O)NN(CC(N)=O)C(=O)/C=C/C(=O)c1ccccc1 [Cbz-Ala-Ala-AAsn-CH═CH—COPh, trans-N^2—(N-Benzyloxycarbonylalanylalanyl)-N^1-carbamoyImethyl-N^1-trans-(3-benzoylpropenoyl)hydrazine] | – | – | IC50 ([7]; S. mansoni legumain, 20 min preincubation, Cbz-Ala-Ala-Asn-AMC substrate): does not inhibit; IC50 ([7]; S. mansoni legumain, 20 min preincubation, Cbz-Ala-Ala-Asn-AMC substrate, listed as —COPh): > 2000 nM
– | – | – | – | – | C[C@H](NC(=O)OCc1ccccc1)C(=O)N[C@@H](C)C(=O)NN(CC(N)=O)C(=O)/C=C/C(=O)N1CCCc2ccccc21 [N^2—(N-Benzyloxycarbonylalanylalanyl)-N^1-carbamoylmethyl-N^1-trans-(3-(3,4-dihydro-2H-quinolin-1-yloxo)propenoyl)hydrazine] | – | 70 nM | –
– | – | – | – | – | C[C@H](NC(=O)OCc1ccccc1)C(=O)N[C@@H](C)C(=O)NN(CC(N)=O)C(=O)/C=C/C(=O)N(C)Cc1cccc2ccccc12 [N^2—(N-Benzyloxycarbonylalanylalanyl)-N^1-carbamoylmethyl-N^1-trans-(3-(methyl-1-naphthylmethylcarbamoyl)propenoyl)hydrazine] | – | 35 nM | kinact/KI [7]: 16900 M⁻¹ s⁻¹
– | – | – | – | – | CC(NC(=O)OCc1ccccc1)C(=O)NC(C)C(=O)NN(CC(N)=O)C(=O)C=CC(=O)N(C)C(Cc1ccccc1)C(=O)N(C)CCc1ccccc1 (stereo not drawn) [N^2—(N-Benzyloxycarbonylalanylalanyl)-N^1-carbamoylmethyl-N^1-trans-(3-methyl-(1-methylphenethylcarbamoyl)phenylethylcarbamoylpropenoyl)hydrazine] | – | 750 nM | –
– | – | – | – | – | C[C@H](NC(=O)OCc1ccccc1)C(=O)N[C@@H](C)C(=O)NN(CC(N)=O)C(=O)/C=C/C(=O)N(Cc1ccccc1)Cc1cccc2ccccc12 [N^2—(N-Benzyloxycarbonylalanylalanyl)-N^1-trans-(3-benzyl-1-naphthylmethylcarbamoylpropenoyl)-N^1-carbamoylmethylhydrazine] | – | 62 nM | kinact/KI [7]: 6180 M⁻¹ s⁻¹
– | – | – | – | – | CC(NC(=O)C(NC(=O)C(CC(=O)O)NC(=O)C(NC(=O)OCc1ccccc1)C(C)C)C(C)C)C(=O)NC(CC(=O)O)C(=O)Nc1ccc2c(C(F)(F)F)cc(=O)oc2c1 (stereo not drawn) [Z-VDVAD-AFC, reference compound] (Cbz-VDVAD-{AFC}; configuration not given here) | – | – | Km ([6]; read-out: KM with caspase-2, substrate Z-VDVAD-AFC): 80.5 µM

SMILES | k2 Caspase-3 [1] | k2 Caspase-8 [2] | k2 Caspase-6 [3] | k2 Caspase-7 [4] | k2 Caspase-10 [5] | k2 Caspase-2 [6] | IC50 [7] | also measured
CCOC(=O)/C=C\C(=O)N(CC(=O)O)NC(=O)[C@@H](NC(=O)[C@H](CCC(=O)O)NC(=O)[C@H](CC(=O)O)NC(=O)OCc1ccccc1)C(C)C (relative stereo) [Cbz-Asp-Glu-Val-AAsp-CH═CH—COOEt (cis), N^2—(N-Benzyloxycarbonylaspartylglutamylvalyl)-N^1-carboxylmethyl-N^1-cis-(3-ethoxycarbonylpropenoyl)hydrazine] | 1,060,000 M^−1s^−1 | 181,000 M^−1s^−1 | 11,000 M^−1s^−1 | 139,000 M^−1s^−1 | 13,500 M^−1s^−1 | 26,200 ± ^ M^−1s^−1 | – | –
CCOC(=O)/C=C/C(=O)N(CC(=O)O)NC(=O)[C@@H](NC(=O)[C@H](CCC(=O)O)NC(=O)OCc1ccccc1)C(C)C (relative stereo) [Cbz-Glu-Val-AAsp-CH═CH—COOEt, N^2—(N-Benzyloxycarbonylglutamylvalyl)-N^1-carboxymethyl-N^1-trans-(3-ethoxycarbonylpropenoyl)hydrazine] | 38,600 M^−1s^−1 | – | 3,540 M^−1s^−1 | 52,400 M^−1s^−1 | 8,940 M^−1s^−1 | 90 M⁻¹ s⁻¹ | – | –
